The values that follow come from US20240246968A1, “SMALL MOLECULE INHIBITORS OF KRAS G12C MUTANT” (Merck Sharp & Dohme LLC, priority 2021, published 2024).

A word on the IC50: it is the concentration that inhibits the measured activity by half.

Test [1] relates to MIA PaCa-2 cells. Put plainly: Growth inhibition activity on KRAS-G12C mutant cell line (MIA PaCa-2), CellTiter-Glo 3D. It counts as cell-based, human. The note with it: Homo sapiens, MIA PaCa-2, 72 h, MIA PaCa-2, 3-day culture with compound. In outline: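 Luminescence readout (CellTiter-Glo 3D) after 3 days of compound treatment at 37 °C, 5% CO2, 0.2% final DMSO, gave % growth inhibition versus no-compound wells, from which IC50 (nM) was derived; cells had been plated in 10% FBS RPMI1640 one day before dosing.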

In test [2] the target is Gppcp-bound recombinant K-Ras4B G12C mutant protein (amino acids 1-169, C51S/C80L/C118S) (Homo sapiens, UniProt P01116, C118S/C51S/C80L/G12C). The experiment in a line: KRASG12C binding assay (LC-MS, compound binding rate). The note with it: test compound final concentration 0.5 μM, 25° C., 1 hour. The gist of the method: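 Covalent adduct formation measured by deconvoluted intact-mass LC-MS after 1 h at 25 °C with compound at 0.5 μM final and 50 nM Gppcp-loaded KRAS G12C (residues 1-169, C51S/C80L/C118S). Buffer: TBS, 0.1 mM TCEP, 0.25 mM MgCl2, 50 μM Gppcp. Binding % = one-molecule adduct/(unbound + all adducts), binned A ≥80, B 60–80, C 40–60, D 20–40, E <20.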

Test [3] concerns the target T1, interaction between recombinant K-Ras4B G12C mutant protein and cRAF RAS-binding domain (cRAF-RBD) (Homo sapiens, UniProt P01116, G12C).
T1 construct: made in house; host or cells: E. coli
The experiment in a line: Inhibitory activity on interaction between KRAS G12C and cRAF (Alpha technology). It counts as biochemical. The note with it: GMPPNP-bound KRAS G12C incubated with compound at 25° C. for 1 hour, then cRAF-RBD; Alpha signal. In outline: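 Alpha readout of cRAF-RBD (aa 50-132) binding to KRAS G12C (aa 1-169) after 1.5 h RT, following 1 h, 25° C compound preincubation with GMPPNP-bound protein (pH 7.5 Tris, 1 mM MgCl2, TCEP, Tween 20). IC50 fitted from titrations, with GDP-bound KRAS as 100% and DMSO as 0% inhibition.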

Take `Cc1nc2cc(-c3cccn4c(C(=O)c5cc(F)c(NC(=O)/C=C/CNC6CCOCC6)c(F)c5)ccc34)c(C(F)(F)F)cc2n1C` [Example 24, (E)-N-(4-(8(1,2-dimethyl-6-(trifluoromethyl)-1H-benzo[d]imidazol-5-yl)indolizine-3-carbonyl)-2,6-difluorophenyl)-4-((tetrahydro-2H-pyran-4-yl)amino)but-2-enamide]: the IC50 in test [1] and in test [3] was 0.054 µM in each case. The binding rate entry in test [2] is recorded as “A (A binding rate of 80% or more is rated “A”)”.
In the case of `Cc1nc2cc(-c3cccn4c(C(=O)c5cc(F)c(NC(=O)/C=C/CNC(C)(C)C)c(F)c5)ccc34)c(C(F)(F)F)cc2n1C` [Example 25, (E)-4-(tert-butylamino)-N-(4-(8-(1,2-dimethyl-6-(trifluoromethyl)-1H-benzo[d]imidazol-5-yl)indolizine-3-carbonyl)-2,6-difluorophenyl)but-2-enamide], the IC50 in test [1] stood at 0.1 µM; in test [3], 0.079 µM. Moreover, the binding rate result in test [2] is on record as “A (A binding rate of 80% or more is rated “A”)”.
The matching figures for `Cc1nc2cc(-c3cccn4c(C(=O)c5cc(F)c(NC(=O)/C=C/CNC6(C)CCOCC6)c(F)c5)ccc34)c(C(F)(F)F)cc2n1C` [Example 26]: 0.082 µM, 0.062 µM and “A (A binding rate of 80% or more is rated “A”)”.
The like results for `Cc1cc2c(ncn2C)c(C)c1-c1cccn2c(C(=O)c3cc(F)c(NC(=O)/C=C/CNC(C)(C)C)c(F)c3)ccc12` [Example 29, (E)-4-(tert-butylamino)-N-(2,6-difluoro-4-(8-(1,4,6-trimethyl-1H-benzo[d]imidazol-5-vi)indolizine-3-carbonyl)phenyl)but-2-enamide] were, in that order, 0.12 µM, 0.09 µM and “A (A binding rate of 80% or more is rated “A”)”.
The like results for `CO[C@H]1CC[C@H](NC/C=C/C(=O)Nc2c(F)cc(C(=O)c3ccc4c(-c5c(Br)cc6c(nc(C)n6C)c5Cl)cccn34)cc2F)CC1` [Example 31, (E)-N-(4-(8(6-bromo-4-chloro-1,2-dimethyl-1H-benzo[d]imidazol-5-yl)indolizine-3-carbonyl)-2,6-difluorophenyl)-4-(((1r,4r)-4-methoxycyclohexyl)amino)but-2-enamide] were, in that order, 0.064 µM, 0.062 µM and “A (A binding rate of 80% or more is rated “A”)”.
`COc1nc2c(cc1-c1cccn3c(C(=O)c4cc(F)c(NC(=O)/C=C/CN[C@H]5CC[C@H](OC)CC5)c(F)c4)ccc13)nc(C)n2C` [Example 33, (E)-N-(2,6-difluoro-4-(8-(5-methoxy-2,3-dimethyl-3H-imidazo[4,5-b]pyridin-6-yl)indolizine-3-carbonyl)phenyl)-4-(((1r,4r)-4-methoxycyclohexyl)amino)but-2-enamide]: the IC50 was found to be 0.14 µM in test [1] and 0.075 µM in test [3]. Moreover, the binding rate entry in test [2] is “A (A binding rate of 80% or more is rated “A”)”.
The like results for `CO[C@H]1CC[C@H](NC/C=C/C(=O)Nc2c(F)cc(C(=O)c3ccc4c(-c5c(C#N)cc6c(nc(C)n6C)c5Cl)cccn34)cc2F)CC1` [Example 37, (E)-N-(4-(8-(4-chloro-6-cyano-1,2-dimethyl-1H-benzo[d]imidazol-5-yl)indolizine-3-carbonyl)-2,6-difluorophenyl)-4-(((1r,4r)-4-methoxycyclohexyl)amino)but-2-enamide] were, in that order, 0.24 µM, 0.087 µM and “A (A binding rate of 80% or more is rated “A”)”.
On to `CO[C@H]1CC[C@H](NC/C=C/C(=O)Nc2c(F)cc(C(=O)c3ccc4c(-c5c(C6CC6)cc6c(nc(C)n6C)c5Cl)cccn34)cc2F)CC1` [Example 38], for which the IC50 was determined as 0.078 µM in test [1] and 0.077 µM in test [3]. For the same molecule, the binding rate result in test [2] is given as “A (A binding rate of 80% or more is rated “A”)”.
The like results for `COc1cc(-c2cncn2C)cc(Cl)c1-c1cccn2c(C(=O)c3cc(F)c(NC(=O)/C=C/CN[C@H]4CC[C@H](OC)CC4)c(F)c3)ccc12` [Example 42, (E)-N-(4-(8-(2-chloro-6-methoxy-4-(1-methyl-1H-imidazol-5-yl)phenyl)indolizine-3-carbonyl)-2,6-difluorophenyl)-4-(((1r,4r)-4-methoxycyclohexyl)amino)but-2-enamide] were, in that order, 0.61 µM, 0.085 µM and “A (A binding rate of 80% or more is rated “A”)”.
The matching figures for `C#Cc1cc2c(nc(C)n2C)c(Cl)c1-c1cccn2c(C(=O)c3cc(F)c(NC(=O)/C=C/CN[C@H]4CC[C@H](OC)CC4)c(F)c3)ccc12` [Example 43, (E)-N-(4-(8-(4-chloro-6-ethynyl-1,2-dimethyl-1H-benzo[d]imidazol-5-yl)indolizine-3-carbonyl)-2,6-difluorophenyl)-4-(((1r,4r)-4-methoxycyclohexyl)amino)but-2-enamide]: 0.16 µM, 0.088 µM and “A (A binding rate of 80% or more is rated “A”)”.
The like results for `COc1cc2c(nc(C)n2C)c(F)c1-c1cccn2c(C(=O)c3cc(F)c(NC(=O)/C=C/CN[C@H]4CC[C@H](OC)CC4)c(F)c3)ccc12` [Example 44] were, in that order, 0.023 µM, 0.022 µM and “A (A binding rate of 80% or more is rated “A”)”.
Turning to `CO[C@H]1CC[C@H](NC/C=C/C(=O)Nc2c(F)cc(C(=O)c3c[nH]c4c(-c5cc6nc(C)n(C)c6cc5C(F)(F)F)cccc34)cc2F)CC1` [Example 45, (E)-N-(4-(7-(1,2-dimethyl-6-(trifluoromethyl)-1H-benzo[d]imidazol-5-yl)-1H-indole-3-carbonyl)-2,6-difluorophenyl)-4-(((1r,4r)-4-methoxycyclohexyl)amino)but-2-enamide], the figures for the IC50 in test [1] and in test [3] were 0.067 µM and 0.076 µM, respectively. Besides, the binding rate entry in test [2] was “A (A binding rate of 80% or more is rated “A”)”.
The matching figures for `COc1cc2c(nc(C)n2C)c(F)c1-c1cccn2c(C(=O)c3cc(F)c(NC(=O)/C=C/CNC(C)(C)C)c(F)c3)ccc12` [Example 46, (E)-4-(tert-butylamino)-N-(2,6-difluoro-4-(8-(4-fluoro-6-methoxy-1,2-dimethyl-1H-benzo[d]imidazol-5-yl)indolizine-3-carbonyl)phenyl)but-2-enamide]: 0.024 µM, 0.03 µM and “A (A binding rate of 80% or more is rated “A”)”.
For `CO[C@H]1CC[C@H](NC/C=C/C(=O)Nc2c(F)cc(C(=O)c3c(C)nc4c(-c5cc6nc(C)n(C)c6cc5C(F)(F)F)cccn34)cc2F)CC1` [Example 51, (E)-N-(4-(8-(1,2-dimethyl-6-(trifluoromethyl)-1H-benzo[d]imidazol-5-yl)-2-methylimidazo[1,2-a]pyridine-3-carbonyl)-2,6-difluorophenyl)-4-(((1r,4r)-4-methoxycyclohexyl)amino)but-2-enamide], the half-maximal inhibitory concentration (IC50) in test [1] was found to be 0.12 µM; in test [3] it was 0.057 µM. In test [2], the binding rate result was “A (A binding rate of 80% or more is rated “A”)”.
The like results for `Cc1nc2c(-c3cc4nc(C)n(C)c4cc3C(F)(F)F)cccn2c1C(=O)c1cc(F)c(NC(=O)/C=C/CNC(C)(C)C)c(F)c1` [Example 52, (E)-4-(tert-butylamino)-N-(4-(8-(1,2-dimethyl-6-(trifluoromethyl)-1H-benzo[d]imidazol-5-yl)-2-methylimidazo[1,2-a]pyridine-3-carbonyl)-2,6-difluorophenyl)but-2-enamide] were, in that order, 0.19 µM, 0.075 µM and “A (A binding rate of 80% or more is rated “A”)”.
Consider `COc1c(-c2cccn3c(C(=O)c4cc(F)c(NC(=O)/C=C/CNC(C)(C)C)c(F)c4)ccc23)c(C(F)(F)F)cc2c1nc(C)n2C` [Example 53, (E)-4-(tert-butylamino)-N-(2,6-difluoro-4-(8-(4-methoxy-1,2-dimethyl-6-(trifluoromethyl)-1H-benzo[d]imidazol-5-yl)indolizine-3-carbonyl)phenyl)but-2-enamide], for which the IC50 in test [1] is 0.022 µM; in test [3], 0.04 µM. For the same molecule, the binding rate result in test [2] is given as “A (A binding rate of 80% or more is rated “A”)”.
The matching figures for `CO[C@H]1C[C@H](NC/C=C/C(=O)Nc2c(F)cc(C(=O)c3ccc4c(-c5cc6nc(C)n(C)c6cc5C(F)(F)F)cccn34)cc2F)C1` [Example 54, (E)-N-(4-(8-(1,2-dimethyl-6-(trifluoromethyl)-1H-benzo[d]imidazol-5-yl)indolizine-3-carbonyl)-2,6-difluorophenyl)-4-(((1r,3r)-3-methoxycyclobutyl)amino)but-2-enamide]: 0.13 µM, 0.067 µM and “A (A binding rate of 80% or more is rated “A”)”.
